Results on 15 molecules are retold here after patent US20250136581A1, “SUBSTITUTED TRIAZOLE DERIVATIVE, PREPARATION METHOD THEREFOR, PHARMACEUTICAL COMPOSITION THEREOF, AND USE THEREOF” (SHANGHAI SIMR BIOTECHNOLOGY CO., LTD., priority 2021, published 2025).

Experiment [1] has as its target α5-GABAA receptor (α5, β3, γ2 subunits) (Homo sapiens (Human), UniProt P18507+P31644). Description: Whole cell patch clamp, inverse agonist efficacy in HEK293 cells expressing α5-GABAA receptor. The class given is cell-based. The settings on record: GABA 0.05 μM, −60 mV; for inhibition at 0.1 µM: HEK293, drug 100 nM, read-out: Compound inverse agonist efficacy %. In a few lines: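 Compounds screened at 100 nM against current induced by 0.05 μM GABA in monoclonal HEK293 cells stably expressing α5β3γ2 GABAA receptors. Recording by whole-cell voltage clamp (−60 mV, pH 7.4 bath, CsCl pipette); efficacy calculated from leak-corrected currents before and after drug.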

A further experiment concerns the target human α1β3γ2 receptors (Homo sapiens (Human), UniProt P14867+P18507). Description: 3H-flunitrazepam competition binding, human α1β3γ2 GABAA receptor. The settings on record: HEK293 cell membranes, 1 nM 3H-flunitrazepam; read-out: Ki α1. How it is done:
(§1) The affinity of the compound to each subtype of GABAA receptor was determined by competing for the binding of ^3H-flunitrazepam to HEK293 cells stably expressing human α1β3γ2, α2β3γ2, α3β3γ2, and α5β3γ2 receptors.
(§2) The cells were suspended in 50 mM Tris-HCl buffer (pH=7.4), homogenized 10 times on ice with a homogenizer for 20 seconds, and centrifuged at 1000 g for 10 minutes at 4° C. The supernatant was collected, and the above steps were repeated. The supernatant was centrifuged at 4° C. (33800 g; Thermo, rotor: A27-8×50) for 60 minutes, and the precipitate was resuspended in Tris buffer (50 mM Tris-HCl, 10 mM MgCl2, 0.5 mM EDTA, 10% glycerol). Protein was measured (BCA method, Pierce), and 1 mL aliquots were prepared and stored at −80° C.
(§3) The radioligand competition binding assay was performed in a 200 μL system (96-well plate) containing 100 μL of cell membrane. The concentration of ^3H-flunitrazepam was 1 nM and the concentration of the test compound was in the range of […]. Flumazenil was used as a control. 1 μL of 2 mM flumazenil (final concentration […]) was added to the low signal control well (Low control, LC), and 1 μL of DMSO was added to the high signal control well (High control, HC). The final concentration of target membrane protein was […]. All test compound sample storage solutions were 10 mM. The working concentration of the samples was to dilute all the samples to 0.2 mM with DMSO, followed by 4-fold serial gradient dilutions for a total of 8 concentration gradients. The 96-well plate was sealed with a sealing film, and then incubated on a shaker at room temperature for 1 hour. At the same time, the GF/C filter plate was soaked in soaking buffer (0.3% PEI, stored at 4° C.) for at least 0.5 hours. After the binding incubation was completed, the cells were collected onto a GF/C filter plate using a cell harvester. The plate was washed four times with washing buffer (50 mM Tris-HCl, pH 7.4, stored at 4° C.). After drying in a 50° C. oven for 1 hour, the bottom of the dried GF/C filter plate was sealed. The residual radioactivity on the filter membrane was detected using liquid scintillation counting. 50 μL of scintillation fluid was added to each well, and the plate was sealed. The readings were taken using a Microbeta2. The inhibitory activity of the test sample on the binding of ^3H-flunitrazepam to GABAA receptor membrane proteins was calculated, and the IC50 of each test sample was calculated by dose-effect curve fitting (GraphPad Prism 5 software), and the Ki of the sample was calculated from the IC50, thus evaluating the binding ability of the sample to the various subtypes of GABAA receptors.

A further experiment deals with human α3β3γ2 receptors (Homo sapiens (Human), UniProt P18507+P34903). Description: 3H-flunitrazepam competition binding, human α3β3γ2 GABAA receptor. To be noted: HEK293 cell membranes, 1 nM 3H-flunitrazepam; read-out: Ki α3. The procedure: as §1, §2, §3
The target of experiment [2] is human α5β3γ2 receptors (α5-GABAA receptor) (Homo sapiens (Human), UniProt P18507+P31644). Description: 3H-flunitrazepam competition binding, human α5β3γ2 GABAA receptor. The settings on record: HEK293 cell membranes, 1 nM 3H-flunitrazepam; read-out: α5-GABAAR Ki. The essentials: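 Radioligand displacement of 1 nM 3H-flunitrazepam from membranes of HEK293 lines stably expressing the human subtypes, 1 h at room temperature, compound in 8-point 4-fold series. Bound label on GF/C filters counted by scintillation; Ki derived from fitted IC50, with flumazenil as low control.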

The target in a further experiment is human α2β3γ2 receptors (Homo sapiens (Human), UniProt P18507+P47869). Description: 3H-flunitrazepam competition binding, human α2β3γ2 GABAA receptor. To be noted: HEK293 cell membranes, 1 nM 3H-flunitrazepam; read-out: Ki α2. The procedure:
as §1, §2, §3

On to `Cc1nnn(-c2ccc(C(F)F)cc2)c1COc1ccc(N2CCNC(=O)C2)nn1` [Example 2, 4-(6-((1-(4-(Difluoromethyl)phenyl)-4-methyl-1H-1,2,3-triazol-5-yl)methoxy)pyridazin-3-yl)piperazin-2-one], for which, in experiment [1], the inhibition at 0.1 µM was 58.8%. The Ki worked out at 145 nM on human α1β3γ2 receptors, 28.6 nM at human α3β3γ2 receptors, 2.15 nM in experiment [2] and 19.8 nM at human α2β3γ2 receptors.
Consider `Cc1nnn(-c2ccc(C(F)F)cc2)c1COc1ccc(N2CC(C(=O)Nc3cnn(C)c3)C2)nn1` [Example 103, 1-(6-((1-(4-(Difluoromethyl)phenyl)-4-methyl-1H-1,2,3-triazol-5-yl)methoxy)pyridazin-3-yl)-N-(1-methyl-1H-pyrazol-4-yl)azetidine-3-carboxamide], for which the inhibition at 0.1 µM in experiment [1] was found to be 49.6%. Also, the inhibitory constant (Ki) on human α1β3γ2 receptors is 52.8 nM; at human α3β3γ2 receptors, 10.3 nM; in experiment [2], 1.27 nM; at human α2β3γ2 receptors it was 40.1 nM.
The corresponding values for `O=C1CN(c2ccc(OCc3c(CO)nnn3-c3ccc(C(F)F)cc3)nn2)CCN1` [Example 80, 4-(6-((1-(4-(Difluoromethyl)phenyl)-4-(hydroxymethyl)-1H-1,2,3-triazol-5-yl)methoxy)pyridazin-3-yl)piperazin-2-one] are 54.8%, 161 nM, 16 nM, 0.82 nM and 22.7 nM.
For the molecule `Cc1nnn(-c2ccc(C(F)F)cc2)c1COc1ccc(N2CCN3CCNC(=O)[C@@H]3C2)nn1` [Example 54, (S)-8-(6-((1-(4-(Difluoromethyl)phenyl)-4-methyl-1H-1,2,3-triazol-5-yl)methoxy)pyridazin-3-yl)hexahydro-2H-pyrazino[1,2-a]pyrazin-1(6H)-one], in experiment [1], the inhibition at 0.1 µM came to 50.9%. Further, the Ki was 294 nM on human α1β3γ2 receptors, 49.8 nM at human α3β3γ2 receptors, 2.55 nM in experiment [2] and 71.6 nM at human α2β3γ2 receptors.
As to `Cc1nnn(-c2ccc(C(F)F)cc2)c1COc1ccc(N2CCOC2=O)nn1` [Example 23, 3-(6-((1-(4-(Difluoromethyl)phenyl)-4-methyl-1H-1,2,3-triazol-5-yl)methoxy)pyridazin-3-yl)oxazolidin-2-one], the inhibition at 0.1 µM in experiment [1] stood at 44.1%. The Ki at human α1β3γ2 receptors worked out at 21.9 nM; in experiment [2] it was 3.73 nM; on human α2β3γ2 receptors, 13.6 nM.
In the case of `CCNC(=O)C1CN(c2ccc(OCc3c(C)nnn3-c3ccc(C(F)F)cc3)nn2)C1` [Example 43, 1-(6-[(1-(4-(Difluoromethyl)phenyl)-4-methyl-1H-1,2,3-triazol-5-yl)methoxy]pyridazin-3-yl)-N-ethylazetidine-3-carboxamide], the inhibition at 0.1 µM in experiment [1] was found to be 52.2%. For the same molecule, the Ki on human α1β3γ2 receptors stood at 149 nM; at human α3β3γ2 receptors it was 18.5 nM; in experiment [2] it was 4.49 nM; on human α2β3γ2 receptors, 72.7 nM.
`Cc1nnn(-c2ccc(C(F)F)cc2)c1COc1ccc(N2CCN[C@H](C(=O)O)C2)nn1` [Example 27, (S)-4-(6-((1-(4-(Difluoromethyl)phenyl)-4-methyl-1H-1,2,3-triazol-5-yl)methoxy)pyridazin-3-yl)piperazine-2-carboxylic acid]: the inhibition at 0.1 µM in experiment [1] was 59.1%. For the same molecule, the Ki on human α1β3γ2 receptors came to 333 nM; on human α3β3γ2 receptors, 135 nM; in experiment [2] it was 3.65 nM; at human α2β3γ2 receptors it was 107 nM.
The corresponding values for `Cc1nnn(-c2ccc(C(F)F)cc2)c1COc1ccc(N2CC(=O)N3CCOC[C@H]3C2)nn1` [Example 173, (R)-8-(6-((1-(4-(Difluoromethyl)phenyl)-4-methyl-1H-1,2,3-triazol-5-yl)methoxy)pyridazin-3-yl)hexahydropyrazino[2,1-c][1,4]oxazin-6(1H)-one] are 50.8%, 80.6 nM, 14.1 nM, 0.55 nM and 16.8 nM.
Take `Cc1nnn(-c2ccc(C(F)F)cc2)c1COc1ccc(N2CCN3CC(C4CC4)NC(=O)[C@@H]3C2)nn1` (single isomer, unassigned) [Example 204]: the “Compound inverse agonist efficacy %” value in experiment [1] (drug 100 nM) is reported as −68.71%. Further, the Ki at human α1β3γ2 receptors was 158 nM; at human α3β3γ2 receptors, 50.3 nM; in experiment [2], 2.31 nM; on human α2β3γ2 receptors, 70.1 nM.
Turning to `Cc1nnn(-c2ccc(C(F)F)cc2)c1COc1ccc(N2CC(=O)NC(C)(C)C2)nn1` [Example 7, 4-(6-((1-(4-(Difluoromethyl)phenyl)-4-methyl-1H-1,2,3-triazol-5-yl)methoxy)pyridazin-3-yl)-6,6-dimethylpiperazin-2-one], the Ki on human α1β3γ2 receptors amounted to 122 nM; at human α3β3γ2 receptors, 17 nM; in experiment [2], 1 nM; at human α2β3γ2 receptors, 26.2 nM.
As to `Cc1ccc(-n2nnc(C)c2COc2ccc(N3CCN4CCNC(=O)[C@@H]4C3)nn2)cc1` [Example 129, (S)-8-(6-((4-Methyl-1-(p-tolyl)-1H-1,2,3-triazol-5-yl)methoxy)pyridazin-3-yl)octahydro-1H-pyrazino[1,2-a]pyrazin-1-one], the inhibition at 0.1 µM in experiment [1] was found to be 56.3%. Besides, the Ki at human α1β3γ2 receptors is 911 nM; at human α3β3γ2 receptors it was 195 nM; in experiment [2] it was 9.75 nM; at human α2β3γ2 receptors it was 168 nM.
The corresponding values for `N#Cc1nnn(-c2ccc(C(F)F)cc2)c1COc1ccc(N2CCNC(=O)C2)nn1` [Example 78, 1-(4-(Difluoromethyl)phenyl)-5-(((6-(3-oxopiperazin-1-yl)pyridazin-3-yl)oxy)methyl)-1H-1,2,3-triazole-4-carbonitrile] are 43.7%, 246 nM, 28.4 nM, 2.03 nM and 45.9 nM.
For `Cc1nnn(-c2ccc(C(F)F)cc2)c1COc1ccc(N2CCN(CCN3CCOCC3)C(=O)C2)nn1` [Example 95, 4-(6-((1-(4-(Difluoromethyl)phenyl)-4-methyl-1H-1,2,3-triazol-5-yl)methoxy)pyridazin-3-yl)-1-(2-morpholinoethyl)piperazin-2-one], in experiment [1], the inhibition at 0.1 µM was determined as 51.9%. Also, the Ki was found to be 6.23 nM on human α1β3γ2 receptors and 0.67 nM in experiment [2].
As for `Cc1nnn(-c2ccc(C(F)F)cc2)c1COc1ccc(N2CCN(C)C2=O)nn1` [Example 24, 1-(6-((1-(4-(Difluoromethyl)phenyl)-4-methyl-1H-1,2,3-triazol-5-yl)methoxy)pyridazin-3-yl)-3-methylimidazolidin-2-one], the inhibition constant (Ki) was found to be 19.3 nM at human α1β3γ2 receptors, 7.72 nM in experiment [2] and 17 nM at human α2β3γ2 receptors.
In the case of `Cc1nnn(-c2ccc(C(F)F)cc2)c1COc1ccc(N2CCN(C)C(=O)C2)cn1` [Example 22, 4-(6-((1-(4-(Difluoromethyl)phenyl)-4-methyl-1H-1,2,3-triazol-5-yl)methoxy)pyridin-3-yl)-1-methylpiperazin-2-one], the inhibition at 0.1 µM in experiment [1] worked out at 48.4%. The Ki at human α1β3γ2 receptors turned out to be 87 nM; in experiment [2] it was 2.69 nM; at human α2β3γ2 receptors it was 38.6 nM.
